The source of these data is patent publication US20200397894A1, “COMPOSITIONS AND METHODS FOR TREATING CANCER” (University of Virginia Patent Foundation, priority 2016, published 2020).

Assay [1] has as its system non-malignant melanocytes PIG3V. As to the kind of experiment: Rereplication by FACS in non-malignant melanocytes. The format is cell-based, human. The note with it: 48 hours following treatment. The procedure:
(§1) The effects of pevonedistat, vemurafenib, and/or silencing of various cell cycle-associated proteins by siRNA on cell cycle distribution and rereplication were assessed by propidium iodide staining and flow cytometry of asynchronous melanoma cultures. Synchronization of cells was not employed to avoid bias and to be able to measure the impact of these perturbations on proliferating cancer cells. Briefly, asynchronous melanoma cell lines were treated with pevonedistat or vemurafenib, or transfected with si-CDT1, si-CDT2, si-SET8, si-p21, sigeminin, si-EMI1, or si-GL2 for a time ranging from 24 to 96 hours. Cells were washed with cold PBS, harvested, and fixed in 70% (v/v) ethanol. Cells were subsequently treated with 20 μg of DNase-free RNase and stained with propidium iodide according to instructions of the manufacturer. Samples were analyzed on a FACSCAN™ (Becton, Dickinson and Company, Franklin Lakes, N.J., United States of America) and G0-G1, S, and G2-M fractions were segmented, and apoptotic (sub-G1 DNA content) and rereplicating (>G2/M DNA content) fractions were determined using FLOWJO® (FLOWJO, LLC, Ashland, Oreg., United States of America) and ModFit (Verity Software House, Topsham, Me., United States of America) software.

Assay [2] concerns PIG3V or PIG1 immortalized but not malignant melanocytic cell lines. Nature of the assay: Proliferation of immortalized non-malignant melanocytic cell lines. The format is cell-based. The note with it: Homo sapiens.
Assay [3] deals with hTERT-transformed keratonocytes (OKF6-TERT2). As to the kind of experiment: Rereplication by FACS in control keratinocytes. The format is cell-based, human. On the procedure: The effect of pevonedistat treatment or CDT2, geminin, or EMI1 knockdown on the cell cycle (and induction of DNA rereplication) was assessed by flow cytometry with propidium iodide (PI) staining. Cells were harvested at 72 or 96 hours post-treatment with pevonedistat or post-transfection, respectively. Cells were collected, washed with PBS, and resuspended in ethanol (75%). Cells were subsequently treated with 20 μg of DNase-free RNase and stained with PI following the manufacturer's protocol. FACSCAN™ (Becton, Dickinson and Company, Franklin Lakes, N.J., United States of America) was used to analyze the samples and G0-G1, S, and G2-M fractions were segmented. Subsequent analysis using FLOWJO® (FLOWJO, LLC, Ashland, Oreg., United States of America) and ModFit (Verity Software House, Topsham, Me., United States of America) software was used to determine apoptotic and re-replicating fractions. Where indicated, Cal27 and FaDu cells were treated with pevonedistat for 48 hours and pulsed with BrdU (10 nM) for 1 hour in the dark prior to harvesting. […] Sampled were analyzed on a FACSCAN™ (Becton, Dickinson and Company, Franklin Lakes, N.J., United States of America), and different fractions of BrdU positive cells were determined using FLOWJO® (FLOWJO, LLC, Ashland, Oreg., United States of America) and ModFit (Verity Software House, Topsham, Me., United States of America) software.
(In general: Flow cytometry measures light scatter and fluorescence of single cells or particles in a stream.)

A further assay deals with DM13 cells. Nature of the assay: Rereplication by propidium iodide staining and FACS. The format is cell-based, human. On the procedure:
as §1

For a further assay, the system named is VMM1 cells. Described as above. The format is cell-based, human. The procedure: as §1
The subject of the next assay is Cal27 cells. Nature of the assay: Rereplication by propidium iodide staining and FACS (HNSCC). The format is cell-based, human. On the procedure:
The effect of pevonedistat treatment or CDT2, geminin, or EMI1 knockdown on the cell cycle (and induction of DNA rereplication) was assessed by flow cytometry with propidium iodide (PI) staining. […] Cells were collected, washed with PBS, and resuspended in ethanol (75%). Cells were subsequently treated with 20 μg of DNase-free RNase and stained with PI following the manufacturer's protocol. FACSCAN™ (Becton, Dickinson and Company, Franklin Lakes, N.J., United States of America) was used to analyze the samples and G0-G1, S, and G2-M fractions were segmented. Subsequent analysis using FLOWJO® (FLOWJO, LLC, Ashland, Oreg., United States of America) and ModFit (Verity Software House, Topsham, Me., United States of America) software was used to determine apoptotic and re-replicating fractions. Where indicated, Cal27 and FaDu cells were treated with pevonedistat for 48 hours and pulsed with BrdU (10 nM) for 1 hour in the dark prior to harvesting. Cells were washed with PBS and staining solution before fixation and permeabilization steps according to the manufacturer's protocol. Cells were subsequently stained with anti-BrdU antibody solution for 20 minutes at room temperature, washed, and stained with 7-AAD for 30 minutes at 4° C. Cells were resuspended in 1 ml of staining buffer and stored at 4° C. overnight before analysis. Sampled were analyzed on a FACSCAN™ (Becton, Dickinson and Company, Franklin Lakes, N.J., United States of America), and different fractions of BrdU positive cells were determined using FLOWJO® (FLOWJO, LLC, Ashland, Oreg., United States of America) and ModFit (Verity Software House, Topsham, Me., United States of America) software.

The test system of the next assay is Trl46 HNSCC cells. Particulars: Trl46, 1 μM pevonedistat; cited from earlier work.

As to `NS(=O)(=O)OCC1CC(n2ccc3c(NC4CCc5ccccc54)ncnc32)CC1O` [pevonedistat, ((1S,2S,4R)-4-(4-((1S)-2,3-Dihydro-H-inden-1-ylamino)-7H-pyrrolo(2,3-d)pyrimidin-7-yl)-2-hydroxycyclopentyl)methyl sulphamate], the rereplication result in assay [1] was “less than 3%”. The same compound came in with an IC50 in assay [2] greater than 500 nM. The DNA rereplication result in assay [3] was “not observed”. Besides, the “Percent of Cells in S and G2/M at 24 hours” value in the assay on DM13 cells (DM13, 1 μM pevonedistat, 24 hours) amounted to 10.4%; in the assay on VMM1 cells (VMM1, 1 μM pevonedistat, 24 hours) it was 7.72%. Further, the “Percent of Cells in S and G2/M at 72 Hours” value with DM13 cells (DM13, 1 μM pevonedistat, 72 hours) is recorded as 13.7%; in the assay with VMM1 cells (VMM1, 1 μM pevonedistat, 72 hours) it was 30.8%. In addition, the cells undergoing rereplication in the assay on DM13 cells (DM13, 72 hours post-treatment) amounted to 13.7%; with VMM1 cells (VMM1, 72 hours post-treatment), 25%; in the assay on Cal27 cells (Cal27, 40 nM pevonedistat 48 hours plus 2 Gy at the 24 hour time point) it was 32.9%; in the assay with Cal27 cells (Cal27, 40 nM pevonedistat for 48 hours) it was 16.8%. Besides, the “cells exhibiting >4N DNA content” value with Cal27 cells (Cal27, 100 nM pevonedistat, PI staining) came to 61%. Besides, the “apoptosis (% of cells)” value with Trl46 HNSCC cells is 65%.

Broadly, the IC50 is the point on the concentration scale where inhibition reaches its midpoint. Read a low IC50 as greater potency in that assay.
